Experimental findings from ChEMBL document CHEMBL3596164, “Inhibitory effects of hydroxylated cinnamoyl esters on lipid absorption and accumulation” (Bioorg Med Chem, 2015) are described below.

Activity calls are given as the source filed them. No cut-off for these calls is given here. Bounds are passed on as bounds.

One may read the inhibition as the relative decrease from the control value, in per cent.

Series [1] has as its target T1, Pancreatic triacylglycerol lipase (Sus scrofa) (UniProt P00591).
T1 sequence (whole entry): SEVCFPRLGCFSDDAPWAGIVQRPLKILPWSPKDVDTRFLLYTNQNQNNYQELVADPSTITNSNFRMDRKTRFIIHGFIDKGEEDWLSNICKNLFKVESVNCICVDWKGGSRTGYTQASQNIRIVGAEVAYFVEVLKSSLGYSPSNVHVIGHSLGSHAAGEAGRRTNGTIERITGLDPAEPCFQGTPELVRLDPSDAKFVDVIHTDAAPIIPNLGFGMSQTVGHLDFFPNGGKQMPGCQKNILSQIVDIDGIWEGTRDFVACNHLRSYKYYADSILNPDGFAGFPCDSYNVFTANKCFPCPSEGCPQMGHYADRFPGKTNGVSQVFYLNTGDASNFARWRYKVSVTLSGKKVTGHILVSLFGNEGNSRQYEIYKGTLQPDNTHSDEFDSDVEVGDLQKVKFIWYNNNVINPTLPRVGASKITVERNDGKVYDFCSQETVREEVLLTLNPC
Kind of series: Inhibition of pig pancreatic lipase at 30 uM after 10 mins by spectrophotometry relative to control.

Series [2] in a line: Cytotoxicity against mouse 3T3L1 cells at 1 to 4 uM after 7 days by MTT assay. The conditions noted are these: 3t3-l1, 168 h. Type of series: cell-based. (Tetrazolium assays rely on reduction of a dye to a coloured formazan, in cell work by metabolically active cells.)
Series [3] can be described thus: (§1) Antiobesity activity in mouse 3T3L1 cells assessed as suppression of DIM-stimulated lipid accumulation at 4 uM after 7 days by Oil Red O staining method relative to control. The following applies: 3T3-L1, 168 h. Type of series: functional.
The subject of another series is 3T3-L1. The description is as §1. Type of series: functional.
In series [4] the target is T1, Pancreatic triacylglycerol lipase (Sus scrofa). Put plainly: Inhibition of pig pancreatic lipase after 10 mins by spectrophotometry relative to control.
Series [5] deals with Mus musculus. Put plainly: Reduction in plasma triglyceride level in corn oil-fed po dosed ddY mouse after 2 to 6 hrs relative to control. Type of series: functional, organism-based.
For series [6], the system named is Mus musculus. Kind of series: Reduction in plasma triglyceride level in corn oil-fed ddY mouse at 30 mg/kg, po after 2 to 6 hrs relative to control. Type of series: functional. Details: scale not given: the % may be the effect or the level left.
Series [7] relates to Mus musculus. Put plainly: Reduction in plasma triglyceride level in corn oil-fed ddY mouse at 150 mg/kg, po after 2 to 6 hrs relative to control. Type of series: functional. Details: scale not given: the % may be the effect or the level left.
Series [8] in a line: Antiobesity activity in mouse 3T3L1 cells assessed as suppression of DIM-stimulated lipid accumulation at 25 to 50 uM after 7 days by Oil Red O staining method relative to control. Type of series: functional, 3T3-L1.

For the molecule `CC(C)=CCC/C(C)=C/COC(=O)/C=C/c1ccc(O)c(O)c1` [GERANYL CAFFEATE], the inhibition in [1] is 62%. Further, in series [2], the Activity entry is “Non-toxic”. For the same molecule, the inhibition at 4 µM in series [3] is 20%.

As for `O=C(/C=C/c1ccc(O)cc1)OCCCCCCc1ccccc1`, the inhibition result (in series [1]; in the series on 3T3-L1) was “inactive” throughout.

In series [1], `O=C(/C=C/c1ccc(O)c(O)c1)OCCCCCCc1ccccc1` showed an inhibition of 54%. Also, in series [4], the ED50 is 22 µM and the inhibition entry is “Dose-dependent effect”. The Activity entry in series [2] is “Non-toxic”. In addition, the inhibition at 4 µM in [3] worked out at 46%.

Consider `CCCCCCCCCCOC(=O)/C=C/c1ccc(O)c(O)c1`, for which the inhibition in series [1] was 38%; in [4], “Dose-dependent effect”. Moreover, the ED50 in series [4] is over 40 µM. The Activity result in the series on Mus musculus [5] is “Dose-dependent effect”; in the series on Mus musculus [6], 78%; in the series on Mus musculus [7], 69%; in series [2] it was “Non-toxic”. Besides, the inhibition at 4 µM in series [3] came to 71%.

In the case of `O=C(/C=C/c1ccc(O)c(O)c1)OCCc1ccccc1` [CAFFEIC ACID PHENETHYL ESTER], the inhibition in series [1] was determined as 62%. Also, in series [4], the ED50 is 10 µM and the inhibition result is “Dose-dependent effect”. The Activity result in [2] is on record as “Non-toxic”. In addition, the inhibition at 4 µM in series [3] stood at 11%. In addition, the “inhibition (INH)” value in [8] was 24%.

Turning to `CCCCCCCCCCOC(=O)/C=C/c1cc(O)c(O)c(O)c1`, the inhibition in series [1] is 92%; in series [4] it was “Dose-dependent effect”. Also, in series [4], the ED50 turned out to be 0.9 µM. Further, the Activity result in the series on Mus musculus [5] was “Dose-dependent effect”; in the series on Mus musculus [6], 73%; in the series on Mus musculus [7], 57%. For the same molecule, the inhibition at 4 µM in series [3] came to 84%.

Consider `CCCCCCCCCCOC(=O)/C=C/c1ccc(O)cc1`, for which the inhibition entry (in series [1]; with 3T3-L1) was “inactive” throughout.

Regarding `CCCCCCCCCCOC(=O)/C=C/c1cccc(O)c1`, the inhibition result (in [1]; in the series on 3T3-L1) was “inactive” in each case.

`O=C(/C=C/c1ccc(O)cc1)OCCc1ccccc1`: the inhibition entry (in [1]; with 3T3-L1) was “inactive” throughout.
